The compounds below were run on HT-29 cells (assay: HT-29 cell necrosis/necroptosis inhibition (TNF-α + SMAC mimetic + zVAD-FMK; CellTiter-Glo cell viability)). Conditions: Homo sapiens; HT-29 cells, TNF-α 10 ng/ml + SMAC mimetic 6 μM + zVAD-FMK 10 μM, 20 hours; geometric mean, 10 points in duplicate; read-out: EC50 (Cell activity; Necrosis/Necroptosis Inhibitory Activity, Compounds 1-142).
Type: cell-based
Outline: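 HT-29 cells (~5,000/well) were switched to FBS-free McCOY's 5A holding TNF-α (10 ng/ml), SMAC mimetic (6 μM) and zVAD-FMK (10 μM), then dosed with a 10-point 1:3 series for 20 h at 37 °C. CellTiter-Glo luminescence gave viability; geometric mean EC50 from duplicates.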
`O=C(N1CCN(c2nccc(-n3nnnc3C(F)(F)F)n2)CC1)N1N=CC[C@H]1c1ccccc1` [Compound 104, (S)-(5-phenyl-4,5-dihydro-1H-pyrazol-1-yl)(4-(4-(5-(trifluoromethyl)-1H-tetrazol-1-yl)pyrimidin-2-yl)piperazin-1-yl)methanone] was tested, and the EC50 was 0.1 to 100 nM.
`Cc1c(-c2nc(N3CCN(C(=O)N4N=CC[C@H]4c4cc(F)cc(C#N)c4)CC3)ncc2F)nnn1CC(N)=O` [Compound 79, (S)-2-(4-(2-(4-(5-(3-cyano-5-fluorophenyl)-4,5-dihydro-1H-pyrazole-1-carbonyl)piperazin-1-yl)-5-fluoropyrimidin-4-yl)-5-methyl-1H-1,2,3-triazol-1-yl)acetamide] showed an EC50 of 0.1 to 100 nM.
`Cc1cc(-c2nc(N3CCN(C(=O)N4N=CC[C@H]4c4cc(F)cc(C#N)c4)CC3)ncc2F)n(C)n1` [Compound 84, (S)-3-(1-(4-(4-(1,3-dimethyl-1H-pyrazol-5-yl)-5-fluoropyrimidin-2-yl)piperazine-1-carbonyl)-4,5-dihydro-1H-pyrazol-5-yl)-5-fluorobenzonitrile] showed an EC50 of 0.1 to 100 nM.
In the case of `Cc1n[nH]cc1-c1nc(N2CCN(C(=O)N3N=CC[C@H]3c3cc(F)cc(F)c3)CC2)ncc1F` [Compound 13, (S)-(5-(3,5-difluorophenyl)-4,5-dihydro-1H-pyrazol-1-yl)(4-(5-fluoro-4-(3-methyl-1H-pyrazol-4-yl)pyrimidin-2-yl)piperazin-1-yl)methanone], the EC50 is reported as 0.1 to 100 nM.
`N#Cc1cc(F)cc([C@@H]2CC=NN2C(=O)N2CCN(c3ncc(F)c(-c4cc(O)nc(O)n4)n3)CC2)c1` [Compound 50, (S)-3-fluoro-5-(1-(4-(5-fluoro-2′,6′-dihydroxy-[4,4′-bipyrimidin]-2-yl)piperazine-1-carbonyl)-4,5-dihydro-1H-pyrazol-5-yl)benzonitrile] gave an EC50 of 0.1 to 100 nM.
Compound `Cn1nc(CO)nc1-c1nc(N2CCN(C(=O)N3N=CC[C@H]3c3cc(F)cc(C#N)c3)CC2)ncc1F` [Compound 72, (S)-3-fluoro-5-(1-(4-(5-fluoro-4-(3-(hydroxymethyl)-1-methyl-1H-1,2,4-triazol-5-yl)pyrimidin-2-yl)piperazine-1-carbonyl)-4,5-dihydro-1H-pyrazol-5-yl)benzonitrile] has an EC50 of 0.1 to 100 nM.
Compound `Cc1nn(C)cc1-c1nc(N2CCN(C(=O)N3N=CC[C@H]3c3cc(F)cc(F)c3)CC2)ncc1F` [Compound 14, (S)-(5-(3,5-difluorophenyl)-4,5-dihydro-1H-pyrazol-1-yl)(4-(4-(1,3-dimethyl-1H-pyrazol-4-yl)-5-fluoropyrimidin-2-yl)piperazin-1-yl)methanone] has an EC50 of 0.1 to 100 nM.
With `Cn1ncc(Cl)c1-c1nc(N2CCN(C(=O)N3N=CC[C@H]3c3cc(F)cc(C#N)c3)CC2)ncc1F` [Compound 15, (5)-3-(1-(4-(4-(4-chloro-1-methyl-1H-pyrazol-5-yl)-5-fluoropyrimidin-2-yl)piperazine-1-carbonyl)-4,5-dihydro-1H-pyrazol-5-yl)-5-fluorobenzonitrile] the EC50 was 0.1 to 100 nM.
`N#Cc1cn(-c2ccnc(N3CCN(C(=O)N4N=CC[C@H]4c4cc(F)cc(F)c4)CC3)n2)cn1` [Compound 2, (S)-1-(2-(4-(5-(3,5-difluorophenyl)-4,5-dihydro-1H-pyrazole-1-carbonyl)piperazin-1-yl)pyrimidin-4-yl)-1H-imidazole-4-carbonitrile] was tested, and the EC50 was 0.1 to 100 nM.
`COC(=O)c1c[nH]c(-c2nc(N3CCN(C(=O)N4N=CC[C@H]4c4cc(F)cc(F)c4)CC3)ncc2F)c1` [Compound 12, methyl (S)-5-(2-(4-(5-(3,5-difluorophenyl)-4,5-dihydro-1H-pyrazole-1-carbonyl)piperazin-1-yl)-5-fluoropyrimidin-4-yl)-1H-pyrrole-3-carboxylate] showed an EC50 of 0.1 to 100 nM.
`NC(=O)c1cnn(-c2nc(N3CCN(C(=O)N4N=CC[C@H]4c4cc(F)cc(F)c4)CC3)ncc2F)c1` [Compound 101, (5)-1-(2-(4-(5-(3,5-difluorophenyl)-4,5-dihydro-1H-pyrazole-1-carbonyl)piperazin-1-yl)-5-fluoropyrimidin-4-yl)-1H-pyrazole-4-carboxamide] showed an EC50 of 0.1 to 100 nM.
For `Cc1nn(-c2nc(N3CCN(C(=O)N4N=CC[C@H]4c4cc(F)cc(F)c4)CC3)ncc2F)c(=O)n1C` [Compound 95, (S)-2-(2-(4-(5-(3,5-difluorophenyl)-4,5-dihydro-1H-pyrazole-1-carbonyl)piperazin-1-yl)-5-fluoropyrimidin-4-yl)-4,5-dimethyl-2,4-dihydro-3H-1,2,4-triazol-3-one], the EC50 was 0.1 to 100 nM.
`Cc1nn(CC2COC2)c(C)c1-c1nc(N2CCN(C(=O)N3N=CC[C@H]3c3cc(F)cc(C#N)c3)CC2)ncc1F` [Compound 135, (S)-3-(1-(4-(4-(3,5-dimethyl-1-(oxetan-3-ylmethyl)-1H-pyrazol-4-yl)-5-fluoropyrimidin-2-yl)piperazine-1-carbonyl)-4,5-dihydro-1H-pyrazol-5-yl) fluorobenzonitrile] showed an EC50 of 0.1 to 100 nM.

Same assay, conditions: Homo sapiens; HT-29 cells, TNF-α 10 ng/ml + SMAC mimetic 6 μM + zVAD-FMK 10 μM, 20 hours; geometric mean, 10 points in duplicate; read-out: EC50 (Cell activity; Necrosis/Necroptosis Inhibitory Activity, Compounds 143-323)
For `Cc1nn(-c2ccnc(N3CCN(C(=O)N4N=CC[C@H]4c4cc(F)cc(C#N)c4)CC3)n2)c(C)c1Br` [Compound 273, (S)-3-(1-(4-(4-(4-bromo-3,5-dimethyl-1H-pyrazol-1-yl)pyrimidinyl)piperazine-1-carbonyl)-4,5-dihydro-1H-pyrazol-5-yl)-5-fluorobenzonitrile], the EC50 was 0.1 to 100 nM.
`Cc1nc(C)n(-c2nc(N3CCN(C(=O)N4N=CC[C@H]4c4cncc(F)c4)CC3)ncc2F)n1` [Compound 248, (S)-(4-(4-(3,5-dimethyl-1H-1,2,4-triazol-1-yl)-5-fluoropyrimidin-2-yl)piperazin-1-yl)(5-(5-fluoropyridin-3-yl)-4,5-dihydro-1H-pyrazol-1-yl)methanone] was tested, and the EC50 was 0.1 to 100 nM.
`Cn1ncnc1-c1nc(N2CCN(C(=O)N3N=CCC3c3ncccc3Cl)CC2)ncc1F` (stereo not drawn) [Compound 221] showed an EC50 of 0.1 to 100 nM.
`CCn1nc(C)n(-c2nc(N3CCN(C(=O)N4N=CC[C@H]4c4cc(F)cc(C#N)c4)CC3)ncc2F)c1=O` [Compound 183, (S)-3-(1-(4-(4-(1-ethyl-3-methyl-5-oxo-1,5-dihydro-4H-1,2,4-triazol-4-yl)-5-fluoropyrimidin-2-yl)piperazine-1-carbonyl)-4,5-dihydro-1H-pyrazol-5-yl)-5-fluorobenzonitrile] gave an EC50 of 0.1 to 100 nM.
For `CCn1cnn(-c2nc(N3CCN(C(=O)N4N=CC[C@H]4c4cc(F)cc(F)c4)CC3)ncc2F)c1=O` [Compound 199, (S)-2-(2-(4-(5-(3,5-difluorophenyl)-4,5-dihydro-1H-pyrazole-1-carbonyl)piperazin-1-yl)-5-fluoropyrimidin-4-yl)-4-ethyl-2,4-dihydro-3H-1,2,4-triazol-3-one], the EC50 was 0.1 to 100 nM.
`Cc1nc(C(N)=O)nn1-c1nc(N2CCN(C(=O)N3N=CC[C@H]3c3cc(F)cc(F)c3)CC2)ncc1F` [Compound 252, (S)-1-(2-(4-(5-(3,5-difluorophenyl)-4,5-dihydro-1H-pyrazole-1-carbonyl)piperazin-1-yl)-5-fluoropyrimidin-4-yl)-5-methyl-1H-1,2,4-triazole-3-carboxamide] was tested, and the EC50 was 0.1 to 100 nM.
For `Cc1nc(CF)nn1-c1nc(N2CCN(C(=O)N3N=CC[C@H]3c3cc(F)cc(C#N)c3)CC2)ncc1F` [Compound 246], the EC50 was 0.1 to 100 nM.
In the case of `Cc1nnc(-c2nc(N3CCN(C(=O)N4N=CC[C@H]4c4cc(F)cc(F)c4)CC3)ncc2F)n1C` [Compound 178, (S)-(5-(3,5-difluorophenyl)-4,5-dihydro-1H-pyrazol-1-yl)(4-(4-(4,5-dimethyl-4H-1,2,4-triazol-3-yl)-5-fluoropyrimidin-2-yl)piperazin-1-yl)methanone], the EC50 is reported as 0.1 to 100 nM.
`O=C(N1CCN(c2ncc(F)c(-n3nccc3C(F)(F)F)n2)CC1)N1N=CC[C@H]1c1cccc(F)c1` [Compound 302, (S)-(4-(5-fluoro-4-(5-(trifluoromethyl)-1H-pyrazol-1-yl)pyrimidin-2-yl)piperazin-1-yl)(5-(3-fluorophenyl)-4,5-dihydro-1H-pyrazol-1-yl)methanone] showed an EC50 of 0.1 to 100 nM.
Compound `Cn1nc(C(N)=O)nc1-c1nc(N2CCN(C(=O)N3N=CCC3c3cc(F)cc(F)c3)CC2)ncc1F` (stereo not drawn) [Compound 225, 5-(2-(4-(5-(3,5-difluorophenyl)-4,5-dihydro-1H-pyrazole-1-carbonyl)piperazin-1-yl)-5-fluoropyrimidin-4-yl)-1-methyl-1H-1,2,4-triazole-3-carboxamide] has an EC50 of 0.1 to 100 nM.
With `Cc1cnn(C)c1-c1ncc(F)c(N2CCN(C(=O)N3N=CC[C@H]3c3cc(F)cc(F)c3)CC2)n1` [Compound 301, (S)-(5-(3,5-difluorophenyl)-4,5-dihydro-1H-pyrazol-1-yl)(4-(2-(1,4-dimethyl-1H-pyrazol-5-yl)-5-fluoropyrimidin-4-yl)piperazin-1-yl)methanone] the EC50 was 0.1 to 100 nM.
Compound `O=C(N1CCN(c2ncc(F)c(-n3nccc3C(F)(F)F)n2)CC1)N1N=CC[C@H]1c1ccccc1` [Compound 307, (S)-(4-(5-fluoro-4-(5-(trifluoromethyl)-1H-pyrazol-1-yl)pyrimidin-2-yl)piperazin-1-yl)(5-phenyl-4,5-dihydro-1H-pyrazol-1-yl)methanone] has an EC50 of 0.1 to 100 nM.
`Cc1ncn(-c2nc(N3CCN(C(=O)N4N=CC[C@H]4c4cccc(F)c4)CC3)ncc2F)n1` [Compound 310, (S)-(4-(5-fluoro-4-(3-methyl-1H-1,2,4-triazol-1-yl)pyrimidin-2-yl)piperazin-1-yl)(5-(3-fluorophenyl)-4,5-dihydro-1H-pyrazol-1-yl)methanone] showed an EC50 of 0.1 to 100 nM.
Compound `Cc1cnn(C)c1-c1cc(N2CCN(C(=O)N3N=CCC3c3cncs3)CC2)c(F)cn1` (stereo not drawn) [Compound 293, (4-(2-(1,4-dimethyl-1H-pyrazol-5-yl)-5-fluoropyridin-4-yl)piperazin-1-yl)(5-(thiazol-5-yl)-4,5-dihydro-1H-pyrazol-1-yl)methanone] has an EC50 of 0.1 to 100 nM.

From US12454529B2, “Piperazine cyclic ureas” (SIRONAX LTD., priority 2020, dated 2025)
